Laboratory results from patent publication US7119073B2, “Peptides and their use as inhibitors of hepatitis C virus ns3 protease” (Istituto Di Ricerche Di Biologia Molecolare P. Angeletti SpA, priority 2001, dated 2006).
Where a SMILES comes first, the peptide text is derived from it. The star is where a group is joined. NHPhenethyl = c1ccc(CCN*)cc1; Cbz = O=C(OCc1ccccc1)*; Boc = CC(C)(C)OC(=O)*

Target: T1, NS3 protease domain complexed to a modified form of the NS4A peptide (Pep4AK) (Hepatitis C virus genotype 1b, UniProt P26663)
T1 construct: NS3 protease domain (residues 1027–1206 of the HCV polyprotein)
Test: HCV NS3 protease domain/NS4A cofactor peptide assay (Assay B)
Assay type: biochemical
Details: NS3 protease domain/NS4A cofactor peptide assay; read-out: Assay B (IC50 class)

T1 sequence (P26663 1027-1206, other chains not shown): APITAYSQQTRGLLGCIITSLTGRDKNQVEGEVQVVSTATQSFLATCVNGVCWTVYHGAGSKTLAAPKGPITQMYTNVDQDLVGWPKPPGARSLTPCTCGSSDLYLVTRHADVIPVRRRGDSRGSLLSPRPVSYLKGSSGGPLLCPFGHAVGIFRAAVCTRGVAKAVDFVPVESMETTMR

SMILES | IC50 [µM]
CC(C)C[C@H](NC(=O)C1(Cc2cccc(C(=O)O)c2)Cc2ccccc2N1)C(=O)N[C@@H](CS)C(=O)NCCc1ccc(C(=O)O)cc1 (mixture of isomers) [Compound 701] | < 100
CC(C)C[C@H](NC(=O)C1(Cc2ccc(C(=O)O)s2)Cc2ccccc2N1)C(=O)N[C@@H](CS)C(=O)NCCc1ccc(C(=O)O)cc1 (mixture of isomers) [Compound 703] | < 100
CC(C)C[C@H](NC(=O)C1(Cc2ccc(C(=O)O)cc2)Cc2ccccc2N1)C(=O)N[C@@H](CS)C(=O)NCCc1ccc(C(=O)O)cc1 (single isomer, unassigned) [Compound 702] | < 100
CC(C)C[C@H](NC(=O)C1(Cc2ccc(C(=O)O)s2)CCc2ccccc2N1)C(=O)N[C@@H](CC(F)F)C(=O)NCCc1ccc(C(=O)O)cc1Cl (single isomer, unassigned) [Compound 711a] | < 100
CC(C)C[C@H](NC(=O)C1(Cc2cccc(C(=O)O)c2)CCc2ccccc2N1)C(=O)N[C@@H](CC(F)F)C(=O)NCCc1ccc(C(=O)O)cc1Cl (single isomer, unassigned) [Compound 712a] | < 100
CC(C)C[C@H](NC(=O)C1(Cc2ccsc2C(=O)O)CCc2ccccc2N1)C(=O)N[C@@H](CC(F)F)C(=O)NCCc1c(F)cc(C(=O)O)cc1F (single isomer, unassigned) [Compound 713] | < 100
CC(C)C[C@H](NC(=O)C1(Cc2ccsc2C(=O)O)CCc2ccccc2N1)C(=O)N[C@@H](CC(F)F)C(=O)NCCc1cccc(/C=C/C(=O)O)c1 (single isomer, unassigned) [Compound 714] | < 100

Same assay, conditions: Table 1; NS3 protease domain/Pep4AK, 4AB peptide substrate; read-out: Assay B

SMILES | IC50 [µM]
CC(C)COC(=O)N[C@@H](CCC(=O)O)C(=O)N[C@@H](CC(C)C)C(=O)N[C@@H](CS)C(=O)NCC(O)c1ccccc1 (mixture of isomers) [Compound 106] | < 100
CC(C)COC(=O)N[C@@H](CCC(=O)O)C(=O)N[C@@H](CC(C)C)C(=O)N[C@@H](CS)C(=O)NCC(C)c1ccccc1 (mixture of isomers) [Compound 107] | < 100
CC(C)C[C@H](NC(=O)[C@H](CCC(=O)O)NC(=O)OCc1ccccc1)C(=O)N[C@@H](CS)C(=O)NCCc1ccccc1 [Compound 101] (Cbz-Glu-Leu-Cys-NHPhenethyl) | < 100
CC(C)C[C@H](NC(=O)[C@@H](NC(=O)OCc1ccc(C(=O)O)cc1)C(C)C)C(=O)N[C@@H](CS)C(=O)NCCc1ccccc1 [Compound 102] | < 100
CC(C)CC(NC(=O)C(CCC(=O)O)NC(=O)OC(C)(C)C)C(=O)NC(CS)C(=O)NCCc1ccccc1 (stereo not drawn) [Compound 103] (Boc-Glu-Leu-Cys-NHPhenethyl; configuration not given here) | < 100
CC(C)COC(=O)NC(CCC(=O)O)C(=O)NC(CC(C)C)C(=O)NC(CS)C(=O)NCCc1ccccc1 (stereo not drawn) [Compound 104] | < 100
CC(C)CC(NC(=O)C(CCC(=O)O)NC(=O)OC(C)(C)C)C(=O)NC(CC(F)F)C(=O)NCCc1ccccc1 (stereo not drawn) [Compound 105] | < 100
CC(C)COC(=O)N[C@@H](CCC(=O)O)C(=O)N[C@@H](CC(C)C)C(=O)N[C@@H](CS)C(=O)NC[C@H](C)c1ccccc1 [Compound 108] | < 100
CC(C)COC(=O)N[C@@H](CCC(=O)O)C(=O)N[C@@H](CC(C)C)C(=O)N[C@@H](CS)C(=O)NCC1(c2ccccc2)CC1 [Compound 109] | < 100
CC(C)COC(=O)NC(CCC(=O)O)C(=O)NC(CC(C)C)C(=O)NC(CS)C(=O)NCC1(c2ccccc2)CCC1 (stereo not drawn) [Compound 110] | < 100
CC(C)COC(=O)N[C@@H](CCC(=O)O)C(=O)N[C@@H](CC(C)C)C(=O)N[C@@H](CS)C(=O)NCC(CC(=O)O)c1ccc(Cl)cc1 (stereo partly drawn) [Compound 111] | < 100
CC(C)COC(=O)NC(CCC(=O)O)C(=O)NC(CC(C)C)C(=O)NC(CS)C(=O)NCCc1ccccc1F (stereo not drawn) [Compound 112] | < 100
CC(C)COC(=O)NC(CCC(=O)O)C(=O)NC(CC(C)C)C(=O)NC(CS)C(=O)NCCc1ccccc1Cl (stereo not drawn) [Compound 113] | < 100
CC(C)CC(NC(=O)C(CCC(=O)O)NC(=O)OCc1ccccc1)C(=O)NC(CS)C(=O)NCCc1ccccc1Cl (stereo not drawn) [Compound 116] | < 100
CC(C)COC(=O)NC(CCC(=O)O)C(=O)NC(CC(C)C)C(=O)NC(CS)C(=O)NCCc1ccccc1Br (stereo not drawn) [Compound 117] | < 100
Cc1ccccc1CCNC(=O)C(CS)NC(=O)C(CC(C)C)NC(=O)C(CCC(=O)O)NC(=O)OCC(C)C (stereo not drawn) [Compound 118] | < 100
COc1ccccc1CCNC(=O)C(CS)NC(=O)C(CC(C)C)NC(=O)C(CCC(=O)O)NC(=O)OCC(C)C (stereo not drawn) [Compound 119] | < 100
CCOc1ccccc1CCNC(=O)C(CS)NC(=O)C(CC(C)C)NC(=O)C(CCC(=O)O)NC(=O)OCC(C)C (stereo not drawn) [Compound 120] | < 100
CC(C)COC(=O)NC(CCC(=O)O)C(=O)NC(CC(C)C)C(=O)NC(CS)C(=O)NCCc1ccccc1C(F)(F)F (stereo not drawn) [Compound 121] | < 100
COC(=O)c1ccccc1CCNC(=O)C(CS)NC(=O)C(CC(C)C)NC(=O)C(CCC(=O)O)NC(=O)OCC(C)C (stereo not drawn) [Compound 122] | < 100
CC(C)COC(=O)NC(CCC(=O)O)C(=O)NC(CC(C)C)C(=O)NC(CS)C(=O)NCCc1ccccc1Oc1ccccc1 (stereo not drawn) [Compound 123] | < 100
CC(C)COC(=O)NC(CCC(=O)O)C(=O)NC(CC(C)C)C(=O)NC(CS)C(=O)NCCc1ccccc1OCc1ccccc1 (stereo not drawn) [Compound 124] | < 100
CC(C)COC(=O)NC(CCC(=O)O)C(=O)NC(CC(C)C)C(=O)NC(CS)C(=O)NCCc1cccc(F)c1 (stereo not drawn) [Compound 126] | < 100
CC(C)COC(=O)NC(CCC(=O)O)C(=O)NC(CC(C)C)C(=O)NC(CS)C(=O)NCCc1cccc(Cl)c1 (stereo not drawn) [Compound 127] | < 100

SMILES | IC50 [µM]
CC(C)COC(=O)NC(CCC(=O)O)C(=O)NC(CC(C)C)C(=O)NC(CS)C(=O)NCCc1cccc(Br)c1 (stereo not drawn) [Compound 128] | < 100
CC(C)COC(=O)NC(CCC(=O)O)C(=O)NC(CC(C)C)C(=O)NC(CS)C(=O)NCCc1cccc(O)c1 (stereo not drawn) [Compound 129] | < 100
Cc1cccc(CCNC(=O)C(CS)NC(=O)C(CC(C)C)NC(=O)C(CCC(=O)O)NC(=O)OCC(C)C)c1 (stereo not drawn) [Compound 130] | < 100
CC(C)COC(=O)NC(CCC(=O)O)C(=O)NC(CC(C)C)C(=O)NC(CS)C(=O)NCCc1cccc(C(F)(F)F)c1 (stereo not drawn) [Compound 131] | < 100
COC(=O)c1cccc(CCNC(=O)C(CS)NC(=O)C(CC(C)C)NC(=O)C(CCC(=O)O)NC(=O)OCC(C)C)c1 (stereo not drawn) [Compound 132] | < 100
CC(C)COC(=O)N[C@@H](CCC(=O)O)C(=O)N[C@@H](CC(C)C)C(=O)N[C@@H](CS)C(=O)NCCc1cccc(/C=C/C(=O)O)c1 [Compound 134] | < 10
CCOC(=O)/C=C/c1cccc(CCNC(=O)[C@H](CS)NC(=O)[C@H](CC(C)C)NC(=O)[C@H](CCC(=O)O)NC(=O)OCC(C)C)c1 [Compound 135] | < 100
CC(C)COC(=O)NC(CCC(=O)O)C(=O)NC(CC(C)C)C(=O)NC(CS)C(=O)NCCc1cccc(-c2ccccc2)c1 (stereo not drawn) [Compound 136] | < 100
CC(C)COC(=O)NC(CCC(=O)O)C(=O)NC(CC(C)C)C(=O)NC(CS)C(=O)NCCc1cccc(Oc2ccccc2)c1 (stereo not drawn) [Compound 137] | < 100
CC(C)COC(=O)NC(CCC(=O)O)C(=O)NC(CC(C)C)C(=O)NC(CS)C(=O)NCCc1ccc(Cl)cc1 (stereo not drawn) [Compound 138] | < 100
CC(C)COC(=O)NC(CCC(=O)O)C(=O)NC(CC(C)C)C(=O)NC(CS)C(=O)NCCc1ccc(Br)cc1 (stereo not drawn) [Compound 139] | < 100
Cc1ccc(CCNC(=O)C(CS)NC(=O)C(CC(C)C)NC(=O)C(CCC(=O)O)NC(=O)OCC(C)C)cc1 (stereo not drawn) [Compound 140] | < 100
COc1ccc(CCNC(=O)C(CS)NC(=O)C(CC(C)C)NC(=O)C(CCC(=O)O)NC(=O)OCC(C)C)cc1 (stereo not drawn) [Compound 141] | < 100
COc1ccc(CCNC(=O)C(CS)NC(=O)C(CC(C)C)NC(=O)C(CCC(=O)O)NC(=O)OC(C)(C)C)cc1 (stereo not drawn) [Compound 142] | < 100
COc1ccc(CCNC(=O)C(CS)NC(=O)C(CC(C)C)NC(=O)C(CCC(=O)O)NC(=O)OCc2ccccc2)cc1 (stereo not drawn) [Compound 143] | < 100
CCOc1ccc(CCNC(=O)C(CS)NC(=O)C(CC(C)C)NC(=O)C(CCC(=O)O)NC(=O)OCC(C)C)cc1 (stereo not drawn) [Compound 144] | < 100
CC(C)COC(=O)NC(CCC(=O)O)C(=O)NC(CC(C)C)C(=O)NC(CS)C(=O)NCCc1ccc(Oc2ccccc2)cc1 (stereo not drawn) [Compound 145] | < 100
CC(C)COC(=O)NC(CCC(=O)O)C(=O)NC(CC(C)C)C(=O)NC(CS)C(=O)NCCc1ccc(O)cc1 (stereo not drawn) [Compound 146] | < 100
CC(C)COC(=O)NC(CCC(=O)O)C(=O)NC(CC(C)C)C(=O)NC(CS)C(=O)NCCc1ccc([N+](=O)[O-])cc1 (stereo not drawn) [Compound 147] | < 100
CC(C)COC(=O)NC(CCC(=O)O)C(=O)NC(CC(C)C)C(=O)NC(CS)C(=O)NCCc1ccc(C(C)(C)C)cc1 (stereo not drawn) [Compound 148] | < 100
CC(C)COC(=O)NC(CCC(=O)O)C(=O)NC(CC(C)C)C(=O)NC(CS)C(=O)NCCc1ccc(C(F)(F)F)cc1 (stereo not drawn) [Compound 149] | < 100
COC(=O)c1ccc(CCNC(=O)C(CS)NC(=O)C(CC(C)C)NC(=O)C(CCC(=O)O)NC(=O)OCC(C)C)cc1 (stereo not drawn) [Compound 150] | < 100
CC(C)COC(=O)NC(C(=O)NC(CC(C)C)C(=O)NC(CS)C(=O)NCCc1ccc(C(=O)O)cc1)C(C)C (stereo not drawn) [Compound 152] | < 10
COC(=O)Cc1ccc(CCNC(=O)C(CS)NC(=O)C(CC(C)C)NC(=O)C(CCC(=O)O)NC(=O)OCC(C)C)cc1 (stereo not drawn) [Compound 153] | < 100

Same assay, conditions: Table 2; NS3 protease domain/Pep4AK; read-out: Assay B

SMILES | IC50 [µM]
CC(C)C[C@H](NC(=O)[C@H](CCC(=O)O)NC(=O)C1CCC(C(=O)O)CC1)C(=O)N[C@@H](CS)C(=O)NCCc1ccccc1Cl (mixture of isomers) [Compound 233] | < 100

Same assay, conditions: Table 4; NS3 protease domain/Pep4AK; read-out: Assay B

SMILES | IC50 [µM]
CC(C)COC(=O)N[C@@H](CCC(=O)O)C(=O)NC(CC(F)(F)F)C(=O)N[C@@H](CS)C(=O)NCCc1ccc(C(=O)O)cc1 (mixture of isomers) [Compound 403] | < 100
